Results taken from patent US20240025907A1, “QUINAZOLINE PAN-KRas INHIBITORS” (Mirati Therapeutics, Inc., priority 2022, published 2024).
Where two headings read alike, the source gives them in different places.

How the values were obtained:
Type in all cases: cell-based
[1] = tested on: KRas-mediated Phosphorylation of ERK in PSN1 cells; test: Cisbio HTRF pERK assay, PSN1 cells; details: 3 hour compound, read-out: Inhibition (HTRF IC50 nM) of KRas-mediated Phosphorylation of ERK, PSN1
Procedure: Inhibition of KRas Phosphorylation of ERK (HTRF) by Exemplary Compounds of Formula (I) • Cisbio HTRF Advanced pERK Assay Catalog #64AERPEH • Cell: MKN1, PSN1 • Procedure: • Day 1: Seed 6,000 cells/well −25 μl/well in 384-well white solid bottom plate; RPM1_10% FBS.

[2] = tested on: KRas-mediated Phosphorylation of ERK in H727 cells; test: Cisbio HTRF pERK assay, H727 cells; details: 3 hrs compound, read-out: Inhibition (HTRF IC50 nM) of KRas-mediated Phosphorylation of ERK, H727
[3] = tested on: KRas-mediated Phosphorylation of ERK in H358 cells; test: Cisbio HTRF pERK assay, H358 cells; details: H358 cells, 3 hrs compound, read-out: Inhibition (HTRF IC50 nM) of KRas-mediated Phosphorylation of ERK, H358
[4] = tested on: KRas-mediated Phosphorylation of ERK in HCT116 cells; test: Cisbio HTRF pERK assay, HCT116 cells; details: HCT116 cells, 3 hrs compound, read-out: Inhibition (HTRF IC50 nM) of KRas-mediated Phosphorylation of ERK, HCT116
[5] = tested on: KRas-mediated Phosphorylation of ERK in H460 cells; test: Cisbio HTRF pERK assay, H460 cells; details: H460 cells, 3 hrs compound, read-out: Inhibition (HTRF IC50 nM) of KRas-mediated Phosphorylation of ERK, H460
[6] = tested on: KRas-mediated Phosphorylation of ERK in A549 cells; test: Cisbio HTRF pERK assay, A549 cells; details: A549 cells, 3 hrs compound, read-out: Inhibition (HTRF IC50 nM) of KRas-mediated Phosphorylation of ERK, A549
[7] = tested on: KRas-mediated Phosphorylation of ERK in AsPC-1 cells; test: Cisbio HTRF pERK assay, AsPC-1 cells; details: 3 hrs compound, read-out: Inhibition (HTRF IC50 nM) of KRas-mediated Phosphorylation of ERK, AsPC-1

SMILES | IC50 ([1]; Homo sapiens, PSN1, 3 h) | IC50 [2] | IC50 [3] | IC50 [4] | IC50 [5] | IC50 [6] | IC50 [1] | IC50 [7] | IC50 ([2]; Homo sapiens, NCI-H727, 3 h) | IC50 ([7]; Homo sapiens, ASPC1, 3 h) | IC50 ([3]; Homo sapiens, NCI-H358, 3 h) | IC50 ([4]; Homo sapiens, HCT-116, 3 h) | IC50 ([5]; Homo sapiens, NCI-H460, 3 h) | IC50 ([6]; Homo sapiens, A549, 3 h)
CN(C)C(=O)c1cc2n(n1)CCCN(c1nc(OC[C@@]34CCCN3C/C(=C\F)C4)nc3c(F)c(-c4ccc(F)c5sc(N)c(C#N)c45)c(Cl)cc13)C2 (atropisomer, axis not shown) [Example 195, 5-((R)-7-(2-amino-3-cyano-7-fluorobenzo[b]thiophen-4-yl)-6-chloro-8-fluoro-2-(((S,Z)-2-(fluoromethylene)tetrahydro-1H-pyrrolizin-7a(5H)-yl)methoxy)quinazolin-4-yl)-N,N-dimethyl-5,6,7,8-tetrahydro-4H-pyrazolo[1,5-a][1,4]diazepine-2-carboxamide] | 115 nM | 2 nM | 1 nM | 6 nM | 2 nM | 2 nM | – | – | – | – | – | – | – | –
CN(C)C(=O)n1cc2c(n1)CCCN(c1nc(OC[C@@]34CCCN3C[C@H](F)C4)nc3c(F)c(-c4ccc(F)c5sc(N)c(C#N)c45)c(Cl)cc13)C2 (atropisomer, axis not shown; (aS)) [Example 186, 5-((S)-7-(2-amino-3-cyano-7-fluorobenzo[b]thiophen-4-yl)-6-chloro-8-fluoro-2-(((2R,7aS)-2-fluorotetrahydro-1H-pyrrolizin-7a(5H)-yl)methoxy)quinazolin-4-yl)-N,N-dimethyl-5,6,7,8-tetrahydropyrazolo[4,3-c]azepine-2(4H)-carboxamide] | – | 202 nM | 98 nM | 670 nM | 341 nM | 382 nM | > 10000 nM | 162 nM | – | – | – | – | – | –
N#Cc1c(N)sc2c(F)ccc(-c3c(Cl)cc4c(N5CCCn6nc(N)c(Cl)c6C5)nc(OC[C@@]56CCCN5C[C@H](F)C6)nc4c3F)c12 (atropisomer, axis not shown; (aS)) [Example 188, 2-amino-4-((R)-4-(2-amino-3-chloro-7,8-dihydro-4H-pyrazolo[1,5-a][1,4]diazepin-5(6H)-yl)-6-chloro-8-fluoro-2-(((2R,7aS)-2-fluorotetrahydro-1H-pyrrolizin-7a(5H)-yl)methoxy)quinazolin-7-yl)-7-fluorobenzo[b]thiophene-3-carbonitrile] | – | 10 nM | 2 nM | 18 nM | 13 nM | 14 nM | 544 nM | 3 nM | – | – | – | – | – | –
N#Cc1c(N)sc2c(F)ccc(-c3c(Cl)cc4c(N5CCCn6nc(N)c(Cl)c6C5)nc(OC[C@@]56CCCN5C[C@H](F)C6)nc4c3F)c12 (atropisomer, axis not shown; (aS)) [Example 189, 2-amino-4-((S)-4-(2-amino-3-chloro-7,8-dihydro-4H-pyrazolo[1,5-a][1,4]diazepin-5(6H)-yl)-6-chloro-8-fluoro-2-(((2R,7aS)-2-fluorotetrahydro-1H-pyrrolizin-7a(5H)-yl)methoxy)quinazolin-7-yl)-7-fluorobenzo[b]thiophene-3-carbonitrile] | – | 882 nM | 327 nM | 2470 nM | 1530 nM | 3350 nM | 7470 nM | 472 nM | – | – | – | – | – | –
N#Cc1c(N)sc2c(F)ccc(-c3c(Cl)cc4c(N5C[C@@H]6C(=O)NC(=O)[C@@H]6C5)nc(OC[C@@]56CCCN5C[C@H](F)C6)nc4c3F)c12 [Example 200, 2-amino-4-(6-chloro-4-((3aR,6aS)-4,6-dioxohexahydropyrrolo[3,4-c]pyrrol-2(1H)-yl)-8-fluoro-2-(((2R,7aS)-2-fluorotetrahydro-1H-pyrrolizin-7a(5H)-yl)methoxy)quinazolin-7-yl)-7-fluorobenzo[b]thiophene-3-carbonitrile] | – | – | – | – | – | – | – | – | 4730 nM | 2740 nM | 1680 nM | 4560 nM | 2760 nM | > 10000 nM
